Test results reported in publication PMC11279807, “Modulation of the Antimelanoma Activity Imparted to Artemisinin Hybrids by the Monoterpene Counterpart” (Molecules, 2024).
Like-named read-outs stand apart in the source and are kept apart here.

Columns and labels:
C3PV = assay: MTT cell viability assay on normal fibroblasts C3PV; format: cell-based, human; conditions: 24 h treatment, triplicates, read-out: IC50 (µM ± SD) C3PV
Method: (§1) The primary human healthy fibroblast C3PV cell line was grown in a culture medium containing 50% Dulbecco Modified Medium (DMEM) and 50% Ham’s F10 supplemented with 10% Fetal Bovine Serum (FBS). […] To all growing media were added 1% Pen/Strep and 1% Glutamine.
To study the effect of artemisinin derivatives on cell viability, MTT assay was performed. Briefly, C3PV, WM115, and WM266 cell lines were seeded in 96-well plates (3000 cells/well in 100 μL of medium) 24 h before treatment and incubated overnight to allow for cell adherence. […] The analyses of cell viability were performed at the end of the treatment. Triplicates were made in all experiments. After 24 h of treatment with newly synthesized compounds, the culture medium was replaced with a solution containing 0.5 mg/mL of MTT. After 3 h of incubation in an incubator, the medium was removed, and a lysis solution (10% SDS, 0.6% acetic acid in DMSO) was added to dissolve the formazan crystals. Optical density measurements were performed with a microplate reader EPOCH/2 (Biotek) with 630 nm (background) and a 570 nm filters.
(§2) The IC50 values were determined via non-linear regression, using the GraphPad Prism software package version 8 (GraphPad Software, San Diego, CA, USA). Results were expressed as means of IC50 values ± SD. The TSI values were calculated using the following formula: […]

WM115 = assay: MTT cell viability assay on primary melanoma cell line WM115; format: cell-based, human; conditions: for IC50: primary melanoma WM115, MTT, 24 h treatment, triplicates, read-out: IC50 (µM ± SD) WM115; for TSI WM115: tumor selectivity index = IC50 on C3PV / IC50 on WM115
Method: as §1
(§3) To study the effect of artemisinin derivatives on cell viability, MTT assay was performed. Briefly, C3PV, WM115, and WM266 cell lines were seeded in 96-well plates (3000 cells/well in 100 μL of medium) 24 h before treatment and incubated overnight to allow for cell adherence. Afterward, the medium was replaced with a fresh one containing the appropriate dose of newly synthesized compounds (doses ranging from 0.01 to 1 μM were used for 24 h). The analyses of cell viability were performed at the end of the treatment. Triplicates were made in all experiments. After 24 h of treatment with newly synthesized compounds, the culture medium was replaced with a solution containing 0.5 mg/mL of MTT. After 3 h of incubation in an incubator, the medium was removed, and a lysis solution (10% SDS, 0.6% acetic acid in DMSO) was added to dissolve the formazan crystals. Optical density measurements were performed with a microplate reader EPOCH/2 (Biotek) with 630 nm (background) and a 570 nm filters.
as §2

WM266 [1] = assay: MTT cell viability assay on metastatic melanoma cell line WM266; format: cell-based, human; conditions: for IC50: Homo sapiens; for TSI WM266: tumor selectivity index = IC50 on C3PV / IC50 on WM266
Method: as §1, §3, §2

WM266 [2] = assay: Cell viability assay in the presence or absence of DFO on WM266; format: cell-based; conditions: Homo sapiens, treatment time 48 h
Description: To obtain information about the mode of action of compounds 9c, 9f, 10b, and 10f, we repeated the cell viability assays on the metastatic cancer line WM266 in the presence of the Fe^2+ chelating agent deferoxamine (DFO). As mentioned above, Fe^2+ ions trigger endoperoxide bridge opening of the sesquiterpene counterpart by Fenton-like mechanisms, leading to the formation of carbon- and oxygen-centered radicals. Usually, this in cell formation of single-electron reactive species seems to be responsible for the biological activity of ART and its semisynthetic and hybrid derivatives. Sequestration of Fe^2 by DFO generally reduces the efficacy of the compounds studied.
DFO was used to study the mode of action of compounds 9c, 9f, 10b, and 10f on WM266 cell line. Twenty-four hours before treatment, cells were seeded in 96-well plates and incubated overnight. Then, cells were pre-treated with 20 μM of DFO for 1 h. After this time, two washes with PBS were performed, and, subsequently, fresh medium containing different doses of the opportune compound was added for 48h. The analyses of cell viability were performed at the end of treatment, and triplicates were made in all experiments.

[3] = Stability by NMR analyses after heating; format: physicochemical; conditions: after heating at 45 and 100 °C for 8 and 2 h, respectively
Method: Based on cellular results, hybrids 9c, 9f, 10b, and 10f were selected for further studies. Their stability was evaluated by NMR analyses after heating them at 45 and 100 °C for 8 and 2 h, respectively (Supplementary Materials S1).

melanoma = conditions: metastatic melanoma drug; cited from earlier work
[4] = WM266, reference hybrid on WM266, as printed in Table 2, read-out: IC50 ± SD R.H.
[5] = WM266, pre-treated with 20 μM DFO for 1 h, read-out: IC50 ± SD WM266 with DFO
[6] = WM266, without DFO, read-out: IC50 ± SD WM266 without DFO
[7] = WM266, 24 h, metastatic melanoma WM266, MTT, 24 h treatment, triplicates, read-out: IC50 (µM ± SD) WM266

| IC50 (WM115) [µM] | IC50 (WM266 [1]; [4]) [µM] | decomposition by 1H NMR [3] | IC50 (WM115; Homo sapiens, WM-115, 24 h) [µM] | IC50 (WM266 [1]; [7]) [µM] | Structure (SMILES) | IC50 (C3PV) [µM] | TSI WM115 (WM115) | TSI WM266 (WM266 [1]) | IC50 (WM266 [2]; [5]) [nM] | IC50 (WM266 [2]; [6]) [nM] | IC50 (C3PV; Homo sapiens, C3PV, 24 h) [µM] | IC50 (melanoma) [nM] |
| --- | --- | --- | --- | --- | --- | --- | --- | --- | --- | --- | --- | --- |
| 0.4 ± 0.04 | 0.09 ± 0.03 | less than 5% |  |  | CC(C)=CCCC(C)=CCOC(=O)CCC(=O)OC1OC2OC3(C)CCC4C(C)CCC(C1C)C24OO3 (stereo not drawn) [Hybrid 10f] | 7.9 ± 4.5 | 19.8 | 87.8 | 500 ± 100 | 90 ± 30 |  |  |
|  | 1.9 ± 0.5 | less than 5% | 3 ± 0.4 | 1.9 ± 0.5 | CC(C)=CCCC(C)=CCOC1OC2OC3(C)CCC4C(C)CCC(C1C)C24OO3 (stereo not drawn) [Hybrid 9f] |  | 29.1 | 45.9 | 132700 ± 400 | 1900 ± 500 | 87.3 ± 2.5 |  |
|  | 1.4 ± 0.56 | less than 5% | 2.1 ± 0.3 | 1.4 ± 0.56 | CC(C)=CCCC(C)CCO[C@H]1O[C@@H]2O[C@@]3(C)CC[C@H]4[C@H](C)CC[C@@H]([C@H]1C)[C@@]24OO3 (stereo partly drawn) [Hybrid 9c] |  | 173.4 | 260.1 | 12700 ± 300 | 1400 ± 560 | 364 ± 7.9 |  |
|  |  |  |  |  | Cn1nnc2c(C(N)=O)ncn2c1=O [temozolomide] |  |  |  |  |  |  | < 50000 |
